Measurements published in PMC12081684, “A three-dimensional high throughput assay identifies novel antibacterial molecules with activity against intracellular Shigella” (npj Antimicrobials and Resistance, 2025).
Like-named read-outs stand apart in the source and are kept apart here.

Tests used:
[1] = system: intracellular S. flexneri SF_nanoluc in Caco-2 cells on Cytodex 3 beads; assay: microbe, parasite or virus in culture; conditions: for IC50: Shigella flexneri
Method: S. flexneri SF_nanoluc was grown overnight on a 50mgL^-1 kanamycin LB plate at 37 °C. Bacteria were scraped from the plate surface and sub-cultured in warm supplemented EMEM medium for 2 h (at 37 °C and 200 rpm) and diluted to get OD around 0.3 at 625 nm. Induction was performed in 500 ml or 1000 ml siliconized spinner flasks under closed culture conditions. 200 mg autoclaved Cytodex 3 beads (GE Healthcare), rehydrated with cation-free PBS (Sigma), were washed with supplemented EMEM medium and inoculated with 1.7 million Caco-2 cells/ml in half of the desired culture volume of the medium. The spinner vessel was kept static for 4 h in a humidified atmosphere of 5% CO2 at 37 °C, allowing Caco-2 cells to bind to beads. The remaining medium was added into the vessel and stirred at 32.5 rpm. The medium was changed every 72 h, and the induction was used on day 17 to ensure Caco-2 cells were fully differentiated.
Cell concentration induction was measured by NucleoCounter® NC-100™ (ChemoMetec Version 2.4). Cellular invasion was initiated by adding the bacterial stock into cell induction with optimal MOI, and the vessel was stationary for an hour before stirring at 22.5 rpm for 5 h in a humid atmosphere of 5% CO2 at 37 °C. After incubation, culture media was discarded by centrifugation; and a gentamicin protection assay was performed, in which cell beads were washed twice with a warm medium and EMEM containing gentamicin (100ug ml^-1) was added to the chamber of the system. The cell culture was incubated for 1 h with stirring and then washed three times with a warm medium before 25 μl of the invasive mixture was dispensed into each well. Plates were incubated for two days in a humid atmosphere of 5% CO2 at 37 °C before proceeding to develop the luminescent signal by adding 10 μl mixture of nanoluciferase substrate (Nano-Glo® Luciferase Assay System, N1130, Promega) into each well. After standing at room temperature for 30 min, luminescent signals were quantified by the Envision Reader (PerkinElmer) in focus luminescent mode. For the bacterial tracking, we used the green fluorescent protein in S. flexneri ATCC 12022GFP to monitor the invasion.
The HTS assay was performed in 384-well black clear-bottom plates (Greiner). Screening compounds were prepared with an appropriate DMSO concentration (0.5% in cell-based assay). Every assay plate contained 16 wells of DMSO as negative controls and 16 wells of moxifloxacin at a final concentration of 20 μM as positive controls. These controls were used to monitor assay quality through determination of Z’ factor as well as normalizing the data on a per-plate basis.
To assess the quality of the dose-response assay, 11 commercially available antimicrobials were used to evaluate the reliability of the HTS assay. The percentage of coefficient of variation (CV%) was calculated by accessing the IC50 (μM) deviation of selected positive controls. Intra-assay reproducibility was determined by comparing the IC50 that were generated in the same run of the two replicates. Inter-assay reproducibility was assessed by comparing the IC50 generated by two replicates of each day over two days. Intra-assay %CV should be <10%, while inter-assay %CV should be <15%. To validate the HTS assay configuration, a set of 10 thousand compounds was assayed in 384-well plates at a final concentration of 10 μM. Assay were run in duplicate and confirmed if needed, a validation data was assessed to analyse the pros and cons of the whole procedure.
Following screening, all non-novel structures were removed, and the remaining compounds were subjected to a dose response (DR) assay, which was set as 3-fold serial dilution started at 100uM each compound.
The raw data of the plate reader was imported and analysed in ActivityBase and Spotfire version 10.3.1.18 (TIBCO).

HepG2 cells = assay: In vitro cytotoxicity on HepG2 cells; type: cell-based; conditions: for IC50: Homo sapiens
Source text: Upon chemical review, the 15 hit compounds were reorganized based on structure similarity into 13 clusters. Two chemicals were considered as a series, and the remaining 11 clusters were singletons (Fig. 3). […] Four of the 15 structures carried an NO2 moiety, including two hits of Series 1, one hit of Series 2, and Singleton 7. Although the antibacterial activity of nitro-containing molecules is known to be broad, nitro groups have been extensively associated with mutagenicity and genotoxicity.

[2] = Experimental Chromlog / ChromLogD pH7.4 and PFI; type: physicochemical; conditions: for Chromlog pH7.4 (Expt): pH7.4, experimental
CAD solubility = type: physicochemical; conditions: Table 1
[3] = Caco-2, read-out: IC50 T1, 1st Batch, replicate T1
[4] = Caco-2, read-out: IC50 T2, 1st Batch, replicate T2
[5] = Caco-2, read-out: IC50 T3, 2nd Batch, replicate T3
[6] = Caco-2, read-out: IC50 T4, 2nd Batch, replicate T4
[7] = Caco-2, read-out: Caco2 IC50 (μM), Table 1, 3-D Caco-2 beads, intracellular S. flexneri
[8] = Caco-2, read-out: Caco2 pIC50, Table 1 (converted), 3-D Caco-2 beads, intracellular S. flexneri
[9] = HepG2, Table 1, read-out: HepG2 pIC50 (converted)
[10] = HepG2, read-out: HepG2 pIC50, Table 1 (converted)
[11] = HepG2, Supplementary table 8, read-out: HepG2 pIC50 (converted)

Compound | IC50 [1, 7] | IC50 [1, 8] | IC50 (HepG2 cells; [9]) | Selectivity (log) Caco pIC50 vs Cytotox ([1]; Caco-2) | Selectivity (log) Caco pIC50 vs cytox ([1]; Caco-2) | Chromlog pH7.4 (Expt) [2] | CAD sol (CAD solubility) | other results
CC[C@H]1OC(=O)[C@H](C)[C@@H](O[C@H]2C[C@@](C)(OC)[C@@H](O)[C@H](C)O2)[C@H](C)[C@@H](O[C@@H]2O[C@H](C)C[C@H](N(C)C)[C@H]2O)[C@](C)(O)C[C@@H](C)CN(C)[C@H](C)[C@@H](O)[C@]1(C)O [Azithromycin, reference compound] | – | – | – | – | – | – | – | IC50 [1, 3]: 0.569 µM; IC50 [1, 4]: 0.51 µM; IC50 [1, 5]: 0.624 µM; IC50 [1, 6]: 0.624 µM
CO/N=C(\C(=O)N[C@@H]1C(=O)N2C(C(=O)O)=C(CSc3nc(=O)c(=O)[nH]n3C)CS[C@H]12)c1csc(N)n1 [Ceftriaxone, reference compound] | – | – | – | – | – | – | – | IC50 [1, 3]: 0.0151 µM; IC50 [1, 4]: 0.0151 µM; IC50 [1, 5]: 0.0196 µM; IC50 [1, 6]: 0.0196 µM
CN1C(=O)[C@H](NC(=O)NCc2ccccc2)N=C(c2ccccc2)c2ccccc21 [Compound 5] | 19.1 µM | 19.1 µM | > 100 µM | – | – | – | – | Selectivity (log) Caco pIC50 vs Cytotox ([1]; Supplementary table 8, vs HepG2): > 0.72 log; Selectivity (log) Caco pIC50 vs cytox ([1]; Table 1, Caco2 pIC50 vs HepG2 pIC50): >0.72 log
CCn1c(-c2nonc2N)nc2c(-c3cccc(Cl)c3)ncc(C(O)c3ccn(C)n3)c21 (stereo not drawn) [Compound 7] | 3.24 µM | 3.24 µM | > 100 µM | > 1.49 log | >1.49 log | 4.75 | 10 µg/mL | –
COc1ccc(C2Nc3nc4ccccc4n3C(C)=C2C(=O)Nc2ccccc2)cc1 (stereo not drawn) [Compound 8] | 22.9 µM | 22.9 µM | 55 µM | 0.38 log | 0.38 log | 4.77 | 10 µg/mL | HepG2 cytotoxicity (in words) (HepG2 cells): exhibit HepG2 cytotoxicity
N#Cc1cnn2c1[nH]c(=O)c1sc(-c3ccccc3)cc12 [Compound 9] | 19.9 µM | 20 µM | 75.9 µM | 0.58 log | 0.58 log | 2.5 | 17 µg/mL | IC50 ([1]; Caco-2, read-out: Caco2 pIC50, printed in Fig. 3 (converted)): 2 µM
CC(=O)c1csc(-c2csc(C)n2)n1 [Compound 10] | 8.51 µM | 8.51 µM | – | 1.07 log | 1.07 log | – | – | IC50 (HepG2 cells; [10]): > 100 µM
NC(=O)c1ccccc1Oc1ccc(Cl)cc1[N+](=O)[O-] [Compound 11] | – | – | – | 0.61 log | – | – | – | IC50 ([1]; Caco-2, read-out: Caco2 pIC50, Supplementary table 8 (converted)): 5.75 µM; HepG2 cytotoxicity (in words) (HepG2 cells): exhibit HepG2 cytotoxicity; IC50 (HepG2 cells; [11]): 23.4 µM
CC(C)c1noc2ncc(C(=O)c3ccccc3O)cc12 [Compound 12] | 1.59 µM | 1.58 µM | – | 1.80 log | 1.80 log | 6.05 | 44 µg/mL | PFI (Expt) ([2]; experimental): 9.05; IC50 (HepG2 cells; [11]): > 100 µM; IC50 (HepG2 cells; [10]): > 10 µM
